In patent US20020026052A1, “3-cyanoquinolines, 3-cyano-1,6-naphthyridines, and 3-cyano-1,7-naphthyridines as protein kinase inhibitors” (American Home Products Corporation, priority 2000, published 2002) one finds IC50 and melting point data, which are given here for six compounds.

Data set [1] deals with Human adenocarcinoma cell line LoVo. Briefly: Cell Based Screen for Inhibitors of Raf Kinase, LoVo. The note with it: four days incubation, SRB. Here is the method:
(§1) Cell Based Screen for Inhibitors of Raf Kinase.
(§2) Cell Lines: Human adenocarcinoma cell line LoVo which is known to be growth inhibited by low nM concentrations of a reference standard inhibitor of Ras and human adenocarcinoma cell line CaCo-2, which is known to be growth resistant to the same reference compound. Cell Media: RPMI 1640 with 10% Fetal Bovine Serum supplemented with L-glutamine and Pennicilin/Streptomycin. Compounds: Supplied usually as a 10 mM stock in 100% DMSO. Normal Saline: 150 mM NaCl Trichloroacetic Acid (TCA): 50% (w/v) in water Sulforhodamine B (SRB): 0.4% (w/v) in 1% Acetic Acid Tris Base: 10 mM in water
(§3) Cells are plated at 2000 cells per well for cell line LoVo and 1500 cells for cell line CaCo-2 in 96 well plates. Cells are plated in media (200 μl) and allowed to adhere overnight at 37 ° C. At 24 hours post plating, compounds are added directly at a volume of 0.5 μl. For the qualitative screen (compounds screened at 25 μM) compound is added directly to cells. For the quantitative screen, compound is first diluted in DMSO to generate concentrations of compound or reference standard of: 1, 5, 10 and 25 μM. It is advisable to make the dilutions in an identical 96 well plate so that compounds may be added using a multichannel micropipettor set at 0.5 μl. The cells are then incubated for four days after which the media is removed using a 12 well manifold by first tipping the plate forward at a 45 degree angle and then inserting the manifold in an upright orientation to prevent the ti
(§4) of the manifold from disturbing cells at the bottom of the plate. 200 μl of normal saline is then added to each well using an 8 well multichannel pipettor, followed by the careful addition of 50 μl of 50% TCA. The plates are then incubated for 2 hours at 4 ° C, after which the supernatant is removed using the same technique as above and the plated washed twice with 200 ul water. The plates are then air dried and 50 μl of SRB stock solution is carefully added so that the entire bottom of each well is covered. This again may be used using an 8 well multichannel pipettor. The SRB is incubated with fixed cells for 15 minutes at room temperature after which the SRB is removed with the manifold as described above and the plates washed twice with 350 μl of 1% acetic acid per well each time.The plates are then air dried after which the bound SRB is released from protein by the addition of 200 µl of Tris base. Resolubilizing the SRB is aided by placing the plates on a rotator for 15-30 minutes. The absorbance of each well is determined at 550 or 562 nm using a microtiter plate reader.
(§5) Each compound or dilution thereof is performed in triplicate. Outliers are identified by visual inspection of the data. Each plate should have a “0” control (vehicle only). […] Quantitative Assay: A standard curve is constructed by plotting the concentration of compound against the average absorbance calculated at that concentration. A curve is plotted and the concentration at which the curve passes through the 50% the absorbance mark seen in the “0” control well is the IC50 calculated for that compound. Multiple entries for a given compound indicate that it was tested multiple times.

Data set [2] concerns human adenocarcinoma cell line CaCo-2. Briefly: Cell Based Screen for Inhibitors of Raf Kinase, CaCo-2. The note with it: four days incubation, SRB. Here is the method:
as §1, §2, §3, §4, §5

Data set [3] has as its target T1, Raf1 (c-Raf) (Homo sapiens, UniProt P04049).
T1 construct: Sf9 insect cell lysate containing full length 6 his-tagged recombinant human c—Raf; 6His; host or cells: Sf9 insect cells (c-Raf, used as lysate); E. coli (GST-MEK1, GST-MAPK)
Briefly: Raf1 Kinase Cascade Assay. The data set is classed as biochemical. Here is the method:
Raf1 Kinase Cascade Assay Procedure
(Specific Activity: ˜200 U/ml). Human Non-active Mek-1—GST and human GST-MAP kinase (recombinant proteins produced in E. coli).
Stock Solutions Raf Assay:
Assay Dilution Buffer (ADB): 2 OmM MOPS, pH 7.2, 25 mM B-glycerol phosphate, mM EGTA, 1 mM sodium orthovanadate, 1 mM dithiothreitol. Magnesium/ATP Cocktail: 500 AM cold ATP and 75 mM magnesium chloride in ADB.
Active Kinase: Human Active c—Raf: Use at 0.4 U per assay point. Non-active GST-MEK1: Use at 0.1, ug per assay point. Non-active GST-p42 MAP Kinase: Use at 1.0 tg per assay point.
TBST—Tris (50 mM, pH 7.5)-1H-, NaCl (150 mM), Tween-20 (0.05%) Superblock (Pierce) Anti—GST Ab (Pharmacia) Anti-Phospho MAPK (Sigma) Anti-Mouse Ab/Europium conjugate (Wallac)
Assay Procedure: First Stage: c—Raf Dependent Activation of GST-MEK and GST-MAPK Add […] of ADB per assay (i.e. per well of a 96 well plate) Add 10 ml of 0.5 mM cold ATP and 75 mM magnesium chloride in ADB. Add 2 ml of c—Raf (0.4 U/assay), in conjunction with 1.6 ml non-active MEKI (0.4 mg/assay). Add 4 ml of non-active GST-p42 MAP Kinase (1.0 mg/assay). Incubate for 60 minutes at 30° C. in a shaking incubator. Transfer this mixture to an anti—GST Ab coated 96 well plate (Nunc Immunosorb plates coated o/n with a—GST, then blocked with Pierce Superblock). Incubate for 60 minutes at 30° C. in a shaking incubator Wash 3×with TBST, add Anti-Phospho MAPK (Sigma) (1:3000)-1H-Incubate for 60 minutes at 30° C. in a shaking incubator Wash 3×with TBST, add Anti-Mouse Ab/Europium conjugate (Wallac) (1:500)-1H-Incubate for 60 minutes at 30° C. in a shaking incubator Wash 3×with TBST, Read plates in Wallac Victor model Plate Reader. Collect data analyze in Excel for single point and IC50 determinations.
IC50 determinations - done on compounds from single point assays with >80% inhibition. Typically Raf-1 assay is run at compound concentrations from 10 μM to 30 nM in half log dilutions. (% inhibition is determined for each compound concentration).

pIC50: −log10 of the molar value. Where “and” joins values, the source holds several entries; their conditions need not be identical. Equal values may be shown once.

On to “4-{3-Chloro-4-[(1-methyl-1H-imidazol-2-yl) sulfanyl]anilino }-7-{5-[(4-ethyl-1-piperazinyl) methyl]-2-furyl }-3-quinolinecarbonitrile [Example 156]”, for which the negative logarithm of the IC50 (pIC50) – broadly, the IC50 on a negative log10 scale, so that one unit is a factor of ten – in data set [1] was 8.25; in data set [2] it was 6.00; in data set [3] it was 8.05 and 7.92.

In the case of `Cn1ccnc1Sc1ccc(Nc2c(C#N)cnc3cc(-c4ccc(CN5CCNCC5)cc4)ccc23)cc1Cl` [Example 97, 4-({3-chloro-4-[(1-methylimidazol-2-yl)sulfanyl]phenyl}amino)-7-[4-(1-piperazinylmethyl)phenyl]-3-quinolinecarbonitrile], the melting point (usually the temperature, or range, at which the solid turns liquid) was in the range of 140 to 142 °C. The compound also showed a pIC50 in data set [1] (Homo sapiens, LoVo, 96 h) of 7.48. Also, the pIC50 in data set [2] (Homo sapiens, Caco-2, 96 h) is under 6.00. This compound also showed a pIC50 in data set [3] of 7.80.

`Cn1ccnc1Sc1ccc(Nc2c(C#N)cnc3cc(-c4ccc(CN5CCCCC5)cc4)ccc23)cc1Cl` [Example 136, 4-{3-Chloro-4-[(1-methyl-IH-imidazol-2-yl)sulfanyl]anilino}-7-[4-(1-piperidinylmethyl)phenyl]-3-quinolinecarbonitrile] registered a melting point of 158 to 160 °C. The compound further gave a pIC50 in data set [1] (Homo sapiens, LoVo, 96 h) of 7.96. Further, in data set [2] (Homo sapiens, Caco-2, 96 h), the negative-log IC50 (pIC50) was under 6.00. In data set [3], the pIC50 was 8.60 and 8.74.

Regarding `Cn1ccnc1Sc1ccc(Nc2c(C#N)cnc3cc(-c4ccc(CN5CCOCC5)cc4)ccc23)cc1Cl` [Example 138, 4-({3-Chloro-4-[(1-methyl-lH-imidazol-2-yl)sulfanyl]phenyl}amino)-7-{4-[(4-morpholinyl)methyl]phenyl}-3-quinolinecarbonitrile], the negative logarithm of the IC50 (pIC50) in data set [1] was 8.21; in data set [2], 6.09; in data set [3] it was 8.25.

The compound `Cn1ccnc1Sc1ccc(Nc2c(C#N)cnc3cc(-c4cnc(N5CCOCC5)nc4)ccc23)cc1Cl` [Example 191, 4-{3-Chloro-4-[(1-methyl-1H-imidazol-2-yl)sulfanyl]anilino}-7-[2-(4-morpholinyl)-5-pyrimidinyl]-3-quinolinecarbonitrile] came in with a melting point of over 250 °C. In addition, the pIC50 in data set [1] (Homo sapiens, LoVo, 96 h) was 7.52. For the same compound, in data set [2] (Homo sapiens, Caco-2, 96 h), the pIC50 is under 5.00. Also, in data set [3], the negative logarithm of the IC50 (pIC50) is 9.00.

In the case of `Cn1ccnc1Sc1ccc(Nc2c(C#N)cnc3cc(-c4ccc(N5CCCCC5)nc4)ccc23)cc1Cl` [Example 211, 4-({3-Chloro-4-[(1-methyl-iH-imidazol-2-yl)sulfanyl]phenyl}amino)-7-[6-(1-piperidinyl)-3-pyridinyl]-3-quinolinecarbonitrile], the negative logarithm of the IC50 (pIC50) in data set [1] was 8.28; in data set [2] it was under 6.00; in data set [3] it was 8.22.
